In ChEMBL document CHEMBL1135099, “Synthesis and antinephritic activities of quinoline-3-carboxamides and related compounds” (2002):
The source made the active and inactive calls. The calls are words filed in the database; no cut-off is given here.

What was measured:
[1] = system: Mus musculus; assay: Percent inhibition of proteinuria in mice, perorally dose of 32 mg/kg; assay type: functional; details: route oral
[2] = system: Mus musculus; assay: Percent inhibition of proteinuria by compound dose of 100 mg/kg given perorally to murine in chronic graft-versus-host-disease test; assay type: functional; details: route oral
[3] = system: Mus musculus; assay: Percent inhibition of proteinuria by compound dose of 10 mg/kg given perorally to murine in chronic graft-versus-host-disease test; assay type: functional; details: route oral
[4] = system: Mus musculus; assay: Percent inhibition of proteinuria by compound dose of 0.1 mg/kg given perorally to murine in chronic graft-versus-host-disease test; assay type: functional; details: route oral
[5] = system: Mus musculus; assay: Percent inhibition of anti-DNA antibody was evaluated by ELISA technique as a measure of auto-immune disease after injection of compound dose of 1 mg/kg in murine; assay type: functional
[6] = system: Mus musculus; assay: Percent inhibition of proteinuria by compound dose of 1 mg/kg given perorally to murine in chronic graft-versus-host-disease test; assay type: functional; details: route oral
[7] = system: Mus musculus; assay: Percent inhibition of anti-DNA antibody was evaluated by ELISA technique as a measure of auto-immune disease after injection of compound dose of 10 mg/kg in murine; assay type: functional
[8] = system: Mus musculus; assay: Percent inhibition of anti-DNA antibody was evaluated by ELISA technique as a measure of auto-immune disease after injection of compound dose of 0.1 mg/kg in murine; assay type: functional
[9] = system: Mus musculus; assay: Percent inhibition of proteinuria by compound dose of 0.1 mg/kg given perorally to MRL/1 mice; assay type: functional; details: route oral
[10] = system: Mus musculus; assay: Percent inhibition of proteinuria by compound dose of 3.2 mg/kg given perorally to MRL/1 mice; assay type: functional; details: route oral
[11] = system: Mus musculus; assay: Percent inhibition of anti-DNA antibody was evaluated by ELISA technique as a measure of auto-immune disease after injection of compound dose of 0.1 mg/kg in MRL/1 mice; assay type: functional
[12] = system: Mus musculus; assay: Percent inhibition of anti-DNA antibody was evaluated by ELISA technique as a measure of auto-immune disease after injection of compound dose of 3.2 mg/kg in MRL/1 mice; assay type: functional
[13] = system: Mus musculus; assay: Percent inhibition of proteinuria by compound dose of 10 mg/kg given perorally to MRL/1 mice; assay type: functional; details: route oral
[14] = system: Mus musculus; assay: Percent inhibition of proteinuria by compound dose of 1 mg/kg given perorally to MRL/1 mice; assay type: functional; details: route oral
[15] = system: Mus musculus; assay: Percent inhibition of proteinuria by compound dose of 0.32 mg/kg given perorally to MRL/1 mice; assay type: functional; details: route oral
[16] = system: Mus musculus; assay: Percent inhibition of anti-DNA antibody was evaluated by ELISA technique as a measure of auto-immune disease after injection of compound dose of 0.32 mg/kg in MRL/1 mice; assay type: functional
[17] = system: Mus musculus; assay: Percent inhibition of anti-DNA antibody was evaluated by ELISA technique as a measure of auto-immune disease after injection of compound dose of 100 mg/kg in murine; assay type: functional
[18] = system: Mus musculus; assay: Percent inhibition of anti-DNA antibody was evaluated by ELISA technique as a measure of auto-immune disease after injection of compound dose of 10 mg/kg in MRL/1 mice; assay type: functional
[19] = system: Mus musculus; assay: Percent inhibition of anti-DNA antibody was evaluated by ELISA technique as a measure of auto-immune disease after injection of compound dose of 1 mg/kg in MRL/1 mice; assay type: functional
[20] = system: Mus musculus; assay: Percent inhibition of anti-DNA antibody was evaluated by ELISA technique as a measure of auto-immune disease after injection of compound dose of 32 mg/kg in MRL/1 mice; assay type: functional
[21] = system: Mus musculus; assay: Percent inhibition of anti-DNA antibody was evaluated by ELISA technique as a measure of auto-immune disease after injection of compound dose of 100 mg/kg in MRL/1 mice; assay type: functional
[22] = system: Mus musculus; assay: Percent inhibition of proteinuria by compound dose of 100 mg/kg given perorally to MRL/1 mice; assay type: functional; details: route oral
[23] = system: Mus musculus; assay: Percent inhibition of proteinuria by compound dose of 1 mg/kg given perorally to MRL/1 mice; Inactive; assay type: functional, organism-based; design: dose 1 mg/kg
[24] = system: Mus musculus; assay: Percent inhibition of proteinuria by compound dose of 32 mg/kg given perorally to MRL/1 mice; assay type: functional; details: route oral
[25] = system: Mus musculus; assay: Percent inhibition of anti-DNA antibody was evaluated by ELISA technique as a measure of auto-immune disease after injection of compound dose of 32 mg/kg in murine; assay type: functional
[26] = system: Mus musculus; assay: Percent inhibition of proteinuria by compound dose of 3.2 mg/kg given perorally to MRL/1 mice; Inactive; assay type: functional, organism-based; design: dose 3.2 mg/kg

Q: For `CSc1ccc2c(c1)c(O)c(C(=O)N(C)C1CCCCC1)c(=O)n2C`, which inhibition in vivo at 32 mg/kg [1] is on record?
A: 43%

Q: `CCn1c(=O)c(C(=O)N(C)c2ccccc2)c(O)c2cc(SC)ccc21` was tested. Which inhibition in vivo at 32 mg/kg [1] did it give?
A: 83%

Q: Which inhibition in vivo at 32 mg/kg [1] does the source give for `COCn1c(=O)c(C(=O)N(C)c2ccccc2)c(O)c2cc(SC)ccc21` here?
A: 78%

Q: With `CSc1ccc2c(c1)c(O)c(C(=O)Nc1ccccc1)c(=O)n2C` as the molecule, how does the inhibition in vivo at 32 mg/kg [1] read?
A: 24%

Q: Which inhibition in vivo at 32 mg/kg [1] does the source give for `CN(C(=O)c1c(O)c2cc(Oc3ccccc3)ccc2n(C)c1=O)c1ccccc1` here?
A: 26%

Q: With `CSc1ccc2c(c1)c(O)c(C(=O)C1(c3ccccc3)CC1)c(=O)n2C` as the molecule, how does the inhibition in vivo at 100 mg/kg [2] read?
A: 29%

Q: `COc1ccc(N(C)C(=O)c2c(O)c3cc(SC)ccc3n(C)c2=O)cc1` was tested. Which inhibition in vivo at 32 mg/kg [1] did it give?
A: 100%

Q: How did the inhibition in vivo at 32 mg/kg [1] turn out when `CNc1c(C(=O)N(C)c2ccccc2)c(=O)n(C)c2ccc(SC)cc12` was run?
A: 83%

Q: `CSc1ccc2c(c1)c(Cl)c(C(=O)N(C)c1ccccc1)c(=O)n2C` was tested. Which inhibition in vivo at 32 mg/kg [1] did it give?
A: -1%

Q: `COc1c(C(=O)N(C)c2ccccc2)c(=O)n(C)c2ccc(SC)cc12` was tested. Which inhibition in vivo at 32 mg/kg [1] did it give?
A: 94%

Q: `CSc1ccc2c(c1)c(N)c(C(=O)N(C)c1ccccc1)c(=O)n2C` was tested. Which inhibition in vivo at 32 mg/kg [1] did it give?
A: 22%

Q: How did the inhibition in vivo at 32 mg/kg [1] turn out when `CN(C(=O)c1c(O)c2cc(S(C)(=O)=O)ccc2n(C)c1=O)c1ccccc1` was run?
A: 0%

Q: `CSc1ccc2c(c1)c(O)c(C(=O)n1ccc3ccccc31)c(=O)n2C` was tested. Which inhibition in vivo at 100 mg/kg [2] did it give?
A: 48%

Q: With `CSc1ccc2c(c1)c(O)c(C(=O)N(C)c1cccc(C(F)(F)F)c1)c(=O)n2C` as the molecule, how does the inhibition in vivo at 32 mg/kg [1] read?
A: 99%

Q: Which inhibition in vivo at 32 mg/kg [1] does the source give for `CSc1ccc2c(c1)c(O)c(C(=O)N(C)c1ccccn1)c(=O)n2C` here?
A: 65%

Q: For `CSc1ccc2c(c1)c(O)c(C(=O)N(C)c1ccc(C)cc1)c(=O)n2C`, which inhibition in vivo at 32 mg/kg [1] is on record?
A: 100%

Q: How did the inhibition in vivo at 32 mg/kg [1] turn out when `CSc1ccc2nc(O)c(C(=O)N(C)c3ccccc3)c(O)c2c1` was run?
A: 88%

Q: What does the source list for `C[C@]12C=CC(=O)C=C1CCC1[C@@H]2[C@@H](O)C[C@@]2(C)[C@H]1CC[C@]2(O)C(=O)CO` (single isomer, unassigned) [PREDNISOLONE]?
A: inhibition in vivo at 10 mg/kg [3]: 100%; inhibition in vivo at 0.1 mg/kg [4]: 53%; inhibition in vivo at 1 mg/kg [5]: 39%; inhibition in vivo at 1 mg/kg [6]: 75%; inhibition in vivo at 10 mg/kg [7]: 52%; inhibition in vivo at 0.1 mg/kg [8]: 39%

Q: With `CSc1ccc2c(c1)c(O)c(C(=O)N(C)c1ccccc1)c(=O)n2C` as the molecule, how does the inhibition in vivo at 10 mg/kg [3] read?
A: 100%

Q: And the inhibition in vivo at 0.1 mg/kg [9]?
A: 100%

Q: What about the inhibition in vivo at 100 mg/kg [2] of the same molecule?
A: 100%

Q: And the inhibition in vivo at 3.2 mg/kg [10]?
A: 100%

Q: What about the inhibition in vivo at 0.1 mg/kg [11] of the same molecule?
A: 49%

Q: What about the inhibition in vivo at 0.1 mg/kg [4] of the same molecule?
A: 66%

Q: What about the inhibition in vivo at 3.2 mg/kg [12] of the same molecule?
A: 88%

Q: What about the inhibition in vivo at 32 mg/kg [1] of the same molecule?
A: 100%

Q: What about the inhibition in vivo at 10 mg/kg [13] of the same molecule?
A: 100%

Q: And the inhibition in vivo at 1 mg/kg [5]?
A: 50%

Q: And the inhibition in vivo at 1 mg/kg [14]?
A: 100%

Q: What about the inhibition in vivo at 1 mg/kg [6] of the same molecule?
A: 82%

Q: What about the inhibition in vivo at 0.32 mg/kg [15] of the same molecule?
A: 100%

Q: What about the inhibition in vivo at 0.32 mg/kg [16] of the same molecule?
A: 69%

Q: And the inhibition in vivo at 100 mg/kg [17]?
A: 94%

Q: What about the inhibition in vivo at 10 mg/kg [7] of the same molecule?
A: 88%

Q: What about the inhibition in vivo at 0.1 mg/kg [8] of the same molecule?
A: 41%

Q: And the inhibition in vivo at 10 mg/kg [18]?
A: 93%

Q: And the inhibition in vivo at 1 mg/kg [19]?
A: 76%

Q: For `CN(C(=O)c1c(O)c2cc([S+](C)[O-])ccc2n(C)c1=O)c1ccccc1` (stereo not drawn), which inhibition in vivo at 32 mg/kg [1] is on record?
A: 100%

Q: `CSc1ccc2c(c1)c(O)c(S(=O)(=O)Cc1ccccc1)c(=O)n2C` was tested. Which inhibition in vivo at 100 mg/kg [2] did it give?
A: -49%

Q: How did the inhibition in vivo at 32 mg/kg [1] turn out when `CSc1ccc2c(c1)c(S)c(C(=O)N(C)c1ccccc1)c(=O)n2C` was run?
A: 19%

Q: `CCN(C(=O)c1c(O)c2cc(SC)ccc2n(C)c1=O)c1ccccc1` was tested. Which inhibition in vivo at 32 mg/kg [1] did it give?
A: 89%

Q: With `CSc1ccc2c(c1)c(O)c(C(=O)N(C)c1ccccc1)c(=O)n2Cc1ccccc1` as the molecule, how does the inhibition in vivo at 32 mg/kg [1] read?
A: -66%

Q: How did the inhibition in vivo at 32 mg/kg [1] turn out when `CN(C(=O)c1c(O)c2cc(Sc3ccccc3)ccc2n(C)c1=O)c1ccccc1` was run?
A: 100%

Q: How did the inhibition in vivo at 32 mg/kg [1] turn out when `CCSc1ccc2c(c1)c(O)c(C(=O)N(C)c1ccccc1)c(=O)n2C` was run?
A: 100%

Q: For `CSc1ccc2c(c1)c(O)c(C(=O)c1ccccc1)c(=O)n2C`, which inhibition in vivo at 100 mg/kg [2] is on record?
A: 42%

Q: With `CSc1ccc2c(c1)c(O)c(C(=O)N(C)c1ccc(F)cc1)c(=O)n2C` as the molecule, how does the inhibition in vivo at 32 mg/kg [1] read?
A: 100%

Q: `CN(C(=O)c1c(O)c2ccccc2n(C)c1=O)c1ccccc1` [ROQUINIMEX] was tested. Which inhibition in vivo at 32 mg/kg [20] did it give?
A: 52%

Q: What about the inhibition in vivo at 10 mg/kg [3] of the same molecule?
A: 9%

Q: And the inhibition in vivo at 100 mg/kg [21]?
A: 76%

Q: And the inhibition in vivo at 100 mg/kg [2]?
A: 98%

Q: What about the inhibition in vivo at 3.2 mg/kg [12] of the same molecule?
A: 35%

Q: And the inhibition in vivo at 100 mg/kg [22]?
A: 100%

Q: And the inhibition in vivo at 32 mg/kg [1]?
A: 86%

Q: And the inhibition in vivo at 10 mg/kg [13]?
A: 60%

Q: What about the inhibition [23] of the same molecule?
A: inactive

Q: What about the inhibition in vivo at 32 mg/kg [24] of the same molecule?
A: 100%

Q: And the inhibition in vivo at 32 mg/kg [25]?
A: 36%

Q: What about the inhibition in vivo at 100 mg/kg [17] of the same molecule?
A: 37%

Q: And the inhibition in vivo at 10 mg/kg [7]?
A: -19%

Q: And the inhibition [26]?
A: inactive

Q: And the inhibition in vivo at 10 mg/kg [18]?
A: 51%

Q: And the inhibition in vivo at 1 mg/kg [19]?
A: 24%

Q: With `CSc1ccc2c(c1)c(O)c(S(=O)(=O)N(C)c1ccccc1)c(=O)n2C` as the molecule, how does the inhibition in vivo at 32 mg/kg [1] read?
A: 53%
